From patent US5235036A, “CRF analogs” (The Salk Institute for Biological Studies, priority 1991, dated 1993)
Entries after “also recorded” stand apart in the source; their conditions may differ. Where two headings read alike, the source gives them in different places. Where a SMILES comes first, the peptide text is derived from it. Where no end group is shown, it is not given here. [ ]: non-standard residue; d: D form.

How the values were obtained:
[1] = test system: secretion of ACTH and β-END-LI; assay: in vivo testing: stimulation of the secretion of ACTH and β-END-LI; details: test system not stated in the example
Protocol: (§1) The synthetic peptides [Ala^20 ]-oCRF and [Ala^39 ]-oCRF are examined for their effects on the secretion of ACTH and β-endorphin in vitro and also in vivo. The potency of synthetic oCRF analogs to stimulate the secretion of ACTH and β-endorphin by cultured rat pituitary cells is measured using the procedure as generally set forth in Endocrinology, 91, 562 (1972) and compared against synthetic oCRF. [Ala^20 ]-oCRF is considered to be about 2 to 4 times as potent as the native hormone. […] In vivo testing which can be carried out using the general procedure set forth in C. Rivier et al., Science.

[2] = lowering of blood pressure when injected peripherally; format: in vivo; details: e.g. intravenously
[3] = background statement; mammals; cited from earlier work
[4] = test system: ACTH and β-endorphin-like activities (β-END-LI); details: in vitro and in vivo; background statement; cited from earlier work
[5] = test system: cultured rat pituitary cells; assay: secretion of ACTH and β-endorphin by cultured rat pituitary cells, compared against synthetic oCRF; format: cell-based
Protocol: as §1

gastric acid production = details: background statement; cited from earlier work

| Compound | biopotency / stimulation of the secretion of ACTH and β-END-LI [1] | lowering of blood pressure [2] | lowering of blood pressure [3] | stimulation of ACTH and β-endorphin secretion / β-END-LI [4] | also measured |
| --- | --- | --- | --- | --- | --- |
| CC[C@H](C)[C@H](NC(=O)[C@@H](NC(=O)[C@H](CCC(=O)O)NC(=O)[C@H](CCSC)NC(=O)[C@H](CC(C)C)NC(=O)[C@H](CCCCN)NC(=O)[C@H](CCCNC(=N)N)NC(=O)[C@H](CC(N)=O)NC(=O)[C@H](CO)NC(=O)[C@H](Cc1c[nH]cn1)NC(=O)[C@H](C)NC(=O)[C@H](CCC(N)=O)NC(=O)[C@H](CCC(N)=O)NC(=O)[C@H](C)NC(=O)[C@H](CC(C)C)NC(=O)[C@H](CCC(N)=O)NC(=O)[C@H](CCC(=O)O)NC(=O)[C@H](C)NC(=O)[C@H](CCCNC(=N)N)NC(=O)[C@H](C)NC(=O)[C@H](CCSC)NC(=O)[C@H](C)NC(=O)[C@H](CC(C)C)NC(=O)[C@@H](NC(=O)[C@H](CCC(=O)O)NC(=O)[C@H](CCCNC(=N)N)NC(=O)[C@H](CC(C)C)NC(=O)[C@H](CC(C)C)NC(=O)[C@H](Cc1c[nH]cn1)NC(=O)[C@@H](Cc1ccccc1)NC(=O)[C@@H](NC(=O)[C@H](CC(C)C)NC(=O)[C@H](CC(=O)O)NC(=O)[C@H](CC(C)C)NC(=O)[C@H](CO)NC(=O)[C@@H](NC(=O)[C@@H]1CCCN1C(=O)[C@@H]1CCCN1C(=O)[C@@H](N)CCC(=O)O)[C@@H](C)CC)[C@@H](C)O)C(C)C)[C@@H](C)CC)C(N)=O [[D-Phe^12, Ala^20]-rCRF(3-41)] (H-EPPISLDLT[dF]HLLREVLAMARAEQLAQQAHSNRKLMEII-NH2) | biopotent | causes significant lowering of blood pressure | – | – | – |
| SEEPPISLDLTFHLLREVLAMARAEQLAQQAHSNRKLMEII [[Ala^20]-rCRF] | biopotent and stimulates the secretion of ACTH and β-END-LI | causes significant lowering of blood pressure | – | – | – |
| SEEPPISLDLTFHLLREVLEMARAEQLAQQAHSNRKLMAII [[Ala^39 -rCRF] | biopotent, stimulates the secretion of ACTH and β-END-LI | causes significant lowering of blood pressure | – | – | – |
| SQEPPISLDLTFHLLREMLEMAKAEQEAEQAALNRLLLEEA [AHC] | – | – | substantially lower blood pressure | stimulate ACTH and β-endorphin-like activities (β-END-LI) in vitro and in vivo | – |
| SQEPPISLDLTFHLLREVLAMTKADQLAQQAHSNRKLLAIA [[Ala^20,29]-oCRF] | biopotent | lowers blood pressure | – | – | – |
| SQEPPISLDLTFHLLREVLAMTKADQLAQQAHSNRKLLDIA [[Ala^20]-oCRF] | – | a significant lowering of blood pressure | – | – | – |
| SQEPPISLDLTFHLLREVLEMTKADQLAQQAHSNRKLLAIA [[Ala^39]-oCRF] | – | a significant lowering of blood pressure | – | – | increase in biopotency in vitro over the native hormone [5]: ~85% |
| Ser-Gln-Glu-Pro-Pro-Ile-Ser-Leu-Asp-Leu-Thr-Phe-His-Leu-Leu-Arg-Glu-Val-Leu-Glu-Met-Thr-Lys-Ala-Asp-Gln-Leu-Ala-Gln-Gln-Ala-His-Ser-Asn-Arg Lys-Leu-Leu-Asp-Ile-Ala (SQEPPISLDLTFHLLREVLEMTKADQLAQQAHSNRKLLDIA) [oCRF] | – | – | lowers blood pressure in mammals; also recorded: substantially lower blood pressure | stimulates the secretion of ACTH and β-endorphin; also recorded: stimulate ACTH and β-endorphin-like activities (β-END-LI) in vitro and in vivo | gastric acid production (gastric acid production): inhibits gastric acid production |
| Ser-Glu-Glu-Pro-Pro-Ile-Ser-Leu-Asp-Leu-Thr-Phe-His-Leu-Leu-Arg-Glu-Val-Leu-Glu-Met-Ala-Arg-Ala-Glu-Gln-Leu-Ala-Gln-Gln-Ala-His-Ser-Asn-Arg -Lys-Leu-Met-Glu-Ile-Ile (SEEPPISLDLTFHLLREVLEMARAEQLAQQAHSNRKLMEII) [rCRF] | – | – | substantially lower blood pressure | stimulate ACTH and β-endorphin-like activities (β-END-LI) in vitro and in vivo | – |
